From US11939299B1, “4-((2-(2-(2-(4-methoxyphenyl)-4,5-diphenyl-1H-imidazol-1-yl)acetyl)hydrazono)methyl)benzoic acid as an anti-cancer compound” (KING FAISAL UNIVERSITY, priority 2023, dated 2024)

Columns and labels:
Assay type in all cases: cell-based
CCRF-CEM = assay: Percentage growth inhibition of in vitro subpanel tumor cell lines, leukemia; details: Homo sapiens, 0.01 mM, read-out: Percentage growth inhibition (GI %)
Method: (§1) The anticancer activity of 4-((2-(2-(2-(4-Methoxyphenyl)-4,5-diphenyl-1H-imidazol-1-yl)acetyl)hydrazono)methyl)benzoic acid was assessed against leukemia, non-small cell lung cancer, colon cancer, central nervous system (CNS) cancer, melanoma, ovarian cancer, renal cancer, prostate cancer, and breast cancer.
(§2) Percentage growth inhibition (GI %) of in vitro subpanel tumor cell lines at 0.01 mM concentration for compound 4-((2-(2-(2-(4-Methoxyphenyl)-4,5-diphenyl-1H-imidazol-1-yl)acetyl)hydrazono)methyl)benzoic acid (Labeled as AE21 in the table) can be seen in Table 1 below.

MOLT-4 = assay: as above; details: Homo sapiens; MOLT-4 (Leukemia), 0.01 mM; read-out: Percentage growth inhibition (GI %)
Method: as §1, §2

RPMI-8226 = assay: as above; details: Homo sapiens; RPMI-8226 (Leukemia), 0.01 mM; read-out: Percentage growth inhibition (GI %)
Method: as §1, §2

EKVX = assay: Percentage growth inhibition of in vitro subpanel tumor cell lines, non-small cell lung cancer; details: Homo sapiens, 0.01 mM, read-out: Percentage growth inhibition (GI %)
Method: as §1, §2

NCI-H226 = assay: as above; details: Homo sapiens, 0.01 mM, read-out: Percentage growth inhibition (GI %)
Method: as §1, §2

NCI-H23 = assay: as above; details: Homo sapiens, 0.01 mM, read-out: Percentage growth inhibition (GI %)
Method: as §1, §2

NCI-H322M = assay: as above; details: Homo sapiens, 0.01 mM, read-out: Percentage growth inhibition (GI %)
Method: as §1, §2

NCI-H522 = assay: as above; details: Homo sapiens, 0.01 mM, read-out: Percentage growth inhibition (GI %)
Method: as §1, §2

HCT-15 = assay: Percentage growth inhibition of in vitro subpanel tumor cell lines, colon cancer; details: Homo sapiens; HCT-15 (Colon Cancer), 0.01 mM; read-out: Percentage growth inhibition (GI %)
Method: as §1, §2

SF-295 = assay: Percentage growth inhibition of in vitro subpanel tumor cell lines, CNS cancer; details: Homo sapiens; SF-295 (CNS Cancer), 0.01 mM; read-out: Percentage growth inhibition (GI %)
Method: as §1, §2

SNB-75 = assay: as above; details: Homo sapiens; SNB-75 (CNS Cancer), 0.01 mM; read-out: Percentage growth inhibition (GI %)
Method: as §1, §2

LOX IMVI = assay: Percentage growth inhibition of in vitro subpanel tumor cell lines, melanoma; details: Homo sapiens, 0.01 mM, read-out: Percentage growth inhibition (GI %)
Method: as §1, §2

MDA-MB-435 = assay: as above; details: Homo sapiens; MDA-MB-435 (Melanoma), 0.01 mM; read-out: Percentage growth inhibition (GI %)
Method: as §1, §2

SK-MEL-5 = assay: as above; details: Homo sapiens; SK-MEL-5 (Melanoma), 0.01 mM; read-out: Percentage growth inhibition (GI %)
Method: as §1, §2

OVCAR-4 = assay: Percentage growth inhibition of in vitro subpanel tumor cell lines, ovarian cancer; details: Homo sapiens; OVCAR-4 (Ovarian Cancer), 0.01 mM; read-out: Percentage growth inhibition (GI %)
Method: as §1, §2

A498 = assay: Percentage growth inhibition of in vitro subpanel tumor cell lines, renal cancer; details: Homo sapiens, 0.01 mM, read-out: Percentage growth inhibition (GI %)
Method: as §1, §2

CAKI-1 = assay: as above; details: Homo sapiens; CAKI-1 (Renal Cancer), 0.01 mM; read-out: Percentage growth inhibition (GI %)
Method: as §1, §2

UO-31 = assay: as above; details: Homo sapiens; UO-31 (Renal Cancer), 0.01 mM; read-out: Percentage growth inhibition (GI %)
Method: as §1, §2

PC-3 = assay: Percentage growth inhibition of in vitro subpanel tumor cell lines, prostate cancer; details: Homo sapiens; PC-3 (Prostate Cancer), 0.01 mM; read-out: Percentage growth inhibition (GI %)
Method: as §1, §2

HS 578T = assay: Percentage growth inhibition of in vitro subpanel tumor cell lines, breast cancer; details: Homo sapiens; HS 578T (Breast Cancer), 0.01 mM; read-out: Percentage growth inhibition (GI %)
Method: as §1, §2

MCF7 = assay: as above; details: Homo sapiens, 0.01 mM, read-out: Percentage growth inhibition (GI %)
Method: as §1, §2

tumor cell lines = assay: Anticancer activity against tumor cell lines (panel, overall statement); details: some tumor cell lines, 0.01 mM concentration
Method: as §1, §2

SMILES: COc1ccc(-c2nc(-c3ccccc3)c(-c3ccccc3)n2CC(=O)N/N=C/c2ccc(C(=O)O)cc2)cc1 [AE21, 4-((2-(2-(2-(4-Methoxyphenyl)-4,5-diphenyl-1H-imidazol-1-yl)acetyl)hydrazono)methyl)benzoic acid]
- inhibition at 10 µM (CCRF-CEM): 2.61%
- inhibition at 10 µM (MOLT-4): 4.6%
- inhibition at 10 µM (RPMI-8226): 0.34%
- inhibition at 10 µM (EKVX): 10.3%
- inhibition at 10 µM (NCI-H226): 6.62%
- inhibition at 10 µM (NCI-H23): 4.19%
- inhibition at 10 µM (NCI-H322M): 0.85%
- inhibition at 10 µM (NCI-H522): 12.4%
- inhibition at 10 µM (HCT-15): 3.82%
- inhibition at 10 µM (SF-295): 5.54%
- inhibition at 10 µM (SNB-75): 18.9%
- inhibition at 10 µM (LOX IMVI): 5.6%
- inhibition at 10 µM (MDA-MB-435): 9.17%
- inhibition at 10 µM (SK-MEL-5): 1.29%
- inhibition at 10 µM (OVCAR-4): 13.7%
- inhibition at 10 µM (A498): 13.5%
- inhibition at 10 µM (CAKI-1): 6.23%
- inhibition at 10 µM (UO-31): 0.61%
- inhibition at 10 µM (PC-3): 2.68%
- inhibition at 10 µM (HS 578T): 18.6%
- inhibition at 10 µM (MCF7): 13.4%
- anticancer activity (tumor cell lines): moderate efficiency
